Test results taken from patent US9867798B2, “Ladostigil therapy for immunomodulation” (priority 2012, dated 2018).
Values joined by “and” are separate entries in the source; they are usually repeats but may differ in a detail not shown here. Identical values can stand only once.

Experiments:
[1] = tested on: cholinesterase (AChE and BuChE); experiment: Cholinesterase activity in spleen and colon of mice drinking DSS (Ellman); assay type: in vivo; settings: for ChE activity colon / ChE activity spleen: DSS 5%, 8 days
Procedure: BALB/c OlaHsd male mice aged 8-9 weeks and weighing 25-30 g were purchased from Harlan (Jerusalem, Israel) and housed in standard cages of up to 5 per cage in the pathogen free Animal Facility of the Institute for Drug Research. All experiments were performed in accordance with the Principles of Laboratory Animal Care (NIH publication #85-23, revised 1985) protocols MD-09-12197-4. Acute colitis was induced in mice by administration of 5% DSS solution (M.Wt.=[…], MP Biomedicals, LLC, Solon, Ohio, USA) in water for 8 days. The DSS solution was freshly prepared every day. Mice were provided with food and water or DSS solution ad libitum during the experiment. They were divided into groups of 10 as follows: Vehicle control group: mice drank water and were given water (1 ml/100 gm) once daily by gavage for 8 days; Drug control group: mice drank water and were given ladostigil (10 mg/kg) by gavage once daily for 8 days. DSS untreated group: mice drank 5% DSS for 7 days and water on the 8th day and were given water (1 ml/100 g) once daily by gavage for 8 days. Drug treated group: mice drank 5% DSS followed by water as above and were given ladostigil (5 or 10 mg/kg) by gavage once daily for 8 days. The volume of 5% DSS solution consumed was measured for each group of mice and the average volume/mouse was calculated. On the eighth day, the mice were anesthetized by CO2 and sacrificed by cervical dislocation 2 h after the last dose of ladostigil. Samples of colon and spleen were taken for measurement of cytokines MPO, cytokines and ChE activity.
In experiments on the effect of chronic treatment with ladostigil on ChE activity in mice drinking DSS, the spleen was rapidly removed as described above, together with a colon segment of about 0.5 cm in length taken from the proximal area. Spleen and colon segments were washed in cold phosphate buffered saline (PBS) before they were frozen at −80° C. For assay, the tissue was unfrozen and weighed and PBS was added to each tissue at a ratio of 1 mg tissue to 1 ml. Tissues were homogenized at a speed of 24,000 rpm in cold phosphate buffer pH 7 containing 0.1% Triton and centrifuged at 14000 rpm. Aliquots of plasma and the supernatant from the spleen and colon were incubated with acetylthiocholine and dinitro benzoic acid in phosphate buffer pH 7 and the rate of development of the yellow color was measured as described by Ellman et al, (1961). Percent inhibition of ChE activity was calculated by comparison with that of control mice given water by gavage. Protein concentration was determined by means of by Pierce BCA Protein Assay Kit (Thermo Scientific, USA) according to the manufacturer's instructions. It is noted, that ChE activity in the colon and spleen of mice is attributed mainly to that of AChE while that in mouse plasma is mainly attributable to BuChE.

[2] = tested on: Psammomys obesus gerbils on high-energy diet; experiment: Diabetes in gerbils on high-energy diet: glucose, insulin, pancreatic islets; assay type: in vivo; set-up: Change in glucose: unit: mg/dL
Procedure: (§1) Male Psammomys obesus gerbils aged 3.5-4 months were given a high-energy diet consisting of 938.5 g/Kg version of 2018SC+F Harlan Tekled Ltd., USA, supplemented with soybean oil to a final fat concentration of 6%. After one week on the diet, blood was taken for measurement of glucose and ChE activity. Half of the animals were given ladostigil (17 mg/kg/day) by gavage while the remainder received tap water by the same route. Blood was taken from the tail once weekly for measurement of glucose as described in Kalman R., et al, (2001). Lab Anim. 35:346-352. After three weeks of treatment the animals they were deeply anesthetized, blood was taken by cardiac puncture for measurement of ChE activity, glucose and insulin levels and the pancreas removed for section and staining with haematoxylin and eosin and the number of islets counted. Blood glucose of 11 animals had reached values exceeding 200 mg/dL after one week on the high energy diet and the average value for the whole group was 300±27 mg/dL. […] It is noted, that cholinesterase activity in plasma of Psammomys obesus is mostly mediated by butyrylcholinesterase (BuChE) rather than by AChE.

[3] = tested on: cholinesterase (mostly BuChE); experiment: ChE inhibition in gerbil plasma (Ellman); assay type: in vivo, Psammomys obesus; settings: 17 mg/kg/day, three hours after the last gavage, vs same gerbil before treatment
Procedure: as §1

ChE = experiment: Cholinesterase activity in spleen and plasma of mice (Example 4); assay type: in vivo, Balb-C mice; settings: 10 mg/kg oral, two hours, ± SD, not significant
Procedure: Ladostigil 10 mg/kg or saline 1 mg/kg were given by gavage to groups of 6 Balb-C male mice weighing 24-30 gm. The mice were sacrificed 120 min later when ChE inhibition reaches its peak. The spleen was rapidly removed and weighed and blood was centrifuged at 14000 rpm at room temperature for 4 min to provide plasma. Phosphate buffer was added to the spleen at a ratio of 1 mg/ml and the tissue was homogenized at a speed of 24,000 rpm in cold phosphate buffer pH=7 containing 0.1% Triton and centrifuged at 14000 rpm. Aliquots of plasma and the supernatant from the spleen were incubated with acetylthiocholine and dinitro benzoic acid in phosphate buffer pH 7 and the rate of development of the yellow color was measured as described by Ellman et al, (1961). Percent inhibition of ChE activity was calculated by comparison with that of control mice given with saline. Protein concentration was determined by means of Bradford reagent (Bio-RAD, 500-0006) and results represented as activity/mg protein.

AChE = settings: 51 and 70.1 mg/kg/day, doses effective in ameliorating EAE; cited from earlier work

## C#CCN[C@@H]1CCc2ccc(OC(=O)N(C)CC)cc21 [Ladostigil, R(+)-6-(N-methyl, N-ethyl-carbamoyloxy)-N′-propargyl-1-aminoindan]
[1]; 5 or 10 mg/kg
  Inhibition of ChE in the colon: Neither dose of ladostigil caused any significant inhibition
[1]; 5 mg/kg orally once daily
  ChE activity colon: 18.5 ± 1.4 μmoles of acetylthiocholine hydrolyzed/min/mg protein
  ChE activity spleen: 10.8 ± 0.6 μmoles of acetylthiocholine hydrolyzed/min/mg protein
[1]; 10 mg/kg orally once daily
  ChE activity colon: 16.7 ± 1.2 μmoles of acetylthiocholine hydrolyzed/min/mg protein
  ChE activity spleen: 10.2 ± 0.7 μmoles of acetylthiocholine hydrolyzed/min/mg protein
[2]; 17 mg/kg/day, three weeks
  Blood glucose levels: decrease in blood glucose levels in all six animals
[2]; individual gerbils, 17 mg/kg/day
  Insulin after 3 weeks of treatment: 132 mU/L and 126.6 mU/L and 124.6 mU/L and 85.3 mU/L and 172 mU/L and 135.3 mU/L
[2]; individual gerbils, 17 mg/kg/day by gavage, 17 mg/kg/day
  Glucose after 3 weeks of treatment: 284 mg/dL and 250 mg/dL and 180 mg/dL and 311 mg/dL and 222 mg/dL and 266 mg/dL
[2]; individual gerbils, 17 mg/kg/day, after 3 weeks vs before, 17 mg/kg/day
  Change in glucose: −136 and −23 and −20 and −41 and −65 and −19
[2]; individual gerbils, 17 mg/kg/day, after 3 weeks, 17 mg/kg/day
  No of islets: 42 and 117 and 79 (2×) and 99 and 87
[2]; individual gerbils, baseline after one week of high energy diet, group later given 17 mg/kg, 17 mg/kg
  Glucose before treatment: 420 mg/dL and 273 mg/dL and 200 mg/dL and 352 mg/dL and 287 mg/dL and 285 mg/dL
[3]
  ChE inhibition in plasma: 50±3%
ChE
  Inhibition of ChE in plasma: 5.7±2.1%
  Inhibition of ChE in spleen: 7.8±6.4%
AChE
  Inhibition of AChE in blood: 60-65%
  Inhibition of AChE in brain: 47-52%
